The source of these data is patent publication US11273167B2, “Compositions and methods for modulating ABHD2 activity” (The Regents of the University of California, priority 2015, dated 2022).

In one assay the target is T1, mouse CatSper (Mus musculus, UniProt A2ARP9+Q80W99+Q8BVN3+Q91ZR5).
T1 construct: Mouse spermatozoa were isolated from cauda epididymis; endogenous in cells; host or cells: mouse cauda epididymal spermatozoa
Description: Whole-cell patch-clamp recording of ICatSper from mouse spermatozoa. Type of assay: cell-based.

Assay [1] has as its system human CatSper channel. Briefly: Whole-cell patch-clamp recording of CatSper currents (ICatSper) from human spermatozoa. To be noted: for activation of CatSper current (ICatSper): whole-cell patch clamp; for effect on P4-dependent activation of CatSper (CatSper P4 sensitivity): human spermatozoa treated with the agent, then P4. Type of assay: cell-based. The procedure:
(§1) All CatSper recordings was performed as described in (Lishko et al., 2013; Lishko et al., 2011). Briefly, gigaohm seal between the patch pipette and human spermatozoon was formed at the cytoplasmic droplet. Spermatozoa were patched either at the cytoplasmic droplet or, if the cytoplasmic droplet was inconspicuous, at the neck region. Seals were formed in high saline (HS) solution containing: 130 mM NaCl, 5 mM KCl, 1 mM MgSO4, 2 mM CaCl2, 5 mM glucose, 1 mM sodium pyruvate, 10 mM lactic acid, 20 mM HEPES, pH 7.4 adjusted with NaOH, 320 mOsm/L. Transition into the whole-cell mode was performed by applying short voltage pulses. Access resistance was 25-40 M. Cells were stimulated every 5 s. Data were sampled at 2-5 kHz and filtered at 1 kHz. Pipettes (11-17 MΩ) for whole-cell patch-clamp recordings of monovalent CatSper currents were filled with (in mM): 130 Cs-methanesulfonate, 70 HEPES, 3 EGTA, 2 EDTA, 0.5 TrisHCl, pH 7.4 adjusted with CsOH. Bath divalent free (DVF) solution for recording of monovalent CatSper currents contained (in mM): 140 Cs-methanesulfonate, 40 HEPES, 1 EDTA, pH 7.4 adjusted with CsOH. HEPES was substituted for MES in the event when acidic extracellular pH was used. HS solution was used to record baseline current while measuring monovalent CatSper currents (Ca^2+ in HS solution inhibits monovalent CatSper currents and causes Ca^2+-dependent inactivation of CatSper channels). Osmolarities of above mentioned solutions were approximately 321 mOsm/L and 335 mOsm/L for bath and pipette solutions, respectively. All electrophysiology experiments were performed at ambient temperature. IcatSper were elicited by voltage ramps from a holding potential of 0 mV. Ramps were applied from −80 mV to +80 mV. Data were analysed with Origin 7.0 and Clampfit 9.2. Statistical data were calculated as the mean±S.E.M., and (n) indicates number of experiments. To determine IcatSper inactivation rate current densities extracted from voltage ramps and acquired at +80 pA were plotted against time. The data were fitted with Boltzmann equation y=1/(1+exp((x−t)/dx)) and mean ti numbers were determined from (n) independent experiments. Statistical significance (t-test) is indicated by (**, p≤0.01 and *, p≤0.05).
(§2) Data were analyzed with Origin 7.0 and Clampfit 9.2. Statistical data were calculated and represented everywhere in text as the mean±S.E.M., and (n) indicates number of experiments. To determine ICatSper inactivation rate current densities extracted from voltage ramps and acquired at +80 pA were plotted against time. The data were fitted with Boltzmann equation y=1/[1+exp((x−τ)/dx)] and mean τ numbers were determined from (n) independent experiments. Hill equation was used to build dose-response curve: y=Vmax*x^n/(k^n+x^n). where n defines Hill slope factor, k defines IC50, and Vmax is close to 100% inhibition. Statistical significance (t test) is indicated by (****P<0.0001, ***P<0.001, **P<0.005 and *P<0.05).

For assay [2], the target named is human CatSper channel (Homo sapiens, UniProt Q7RTX7+Q86XQ3+Q8NEC5+Q96P56). The description is as above. Type of assay: cell-based. The procedure:
as §1, §2

The next assay deals with T2, ABHD2 (Homo sapiens, UniProt P08910).
T2 construct: endogenous in cells; host or cells: human spermatozoa
T2 sequence (P08910 1-425): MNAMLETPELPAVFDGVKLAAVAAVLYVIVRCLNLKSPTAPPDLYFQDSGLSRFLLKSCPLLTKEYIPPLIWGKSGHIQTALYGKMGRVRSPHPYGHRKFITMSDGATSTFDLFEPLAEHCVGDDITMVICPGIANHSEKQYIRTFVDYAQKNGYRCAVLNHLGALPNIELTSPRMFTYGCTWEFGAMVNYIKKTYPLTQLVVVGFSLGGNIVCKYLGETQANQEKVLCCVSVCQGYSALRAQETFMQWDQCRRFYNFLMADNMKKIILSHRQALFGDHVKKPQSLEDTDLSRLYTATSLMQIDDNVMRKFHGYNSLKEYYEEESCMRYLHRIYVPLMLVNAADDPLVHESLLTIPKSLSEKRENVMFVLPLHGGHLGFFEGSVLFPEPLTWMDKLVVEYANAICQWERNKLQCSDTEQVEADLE
Description: P4* UV cross-linking and streptavidin pull-down from human sperm, ABHD2 western blot. It is filed as binding. To be noted: 250 nM P4*. The procedure:
After collection, sperm cells were treated with 0.5 units (U) of PI-PLC ([…]; Life Technologies, Carlsbad, Calif.) and incubated at 37° C. for an hour. […] Lysates were added to streptavidin coated magnetic beads (65001; Life Technologies, Carlsbad, Calif.) on ice for another thirty minutes with gentle agitation. Bound proteins were eluted by boiling in Laemmli Sample Buffer in the presence of beta-mercaptoethanol and subjected to SDS-polyacrylamide gel electrophoresis. […] Bands were excised and subjected to in-gel trypsinization after which peptides were extracted and dried for use in proteomic analysis. Protease inhibitors were used throughout the following procedure. Highly motile sperm swim-up fraction was subjected to osmotic shock by a 5 min incubation in 0.5×HS solution, addition of 10 mM EDTA and 10 mM DTT for 10 min, and sonication in a water bath at 25° C. for 5 min. Osmolarity was adjusted by addition of 10×PBS. 5× Laemmli sample buffer was added to a final 1× concentration and the DTT concentration adjusted to 20 mM. An additional 5 min sonication and boiling at 100° C. for 5 min were performed. Total crude cell lysate was loaded onto a 4-20% gradient Tris-HCl CriterionTM SDS-PAGE gel (BioRad). […] Following transfer to PVDF membranes, blots were blocked in 0.1% PBS-Tween20 with 3% IgG free BSA for 15 min and incubated in primary antibodies overnight at 4° C. […]

The subject of assay [3] is human CatSper channel. To be noted: shown previously (Lishko et al., 2011); cited from earlier work.
The next assay relates to mouse spermatozoa. Description: Acrosome exocytosis assessment in live capacitated mouse sperm. Type of assay: cell-based. To be noted: 3 μM P4, 3 μM AA.
Setting [4] is: human spermatozoa, extracellular application.

“Also recorded” adds a separate entry of the source. Read-outs that look alike come from different tables or passages of the source.

Sequence of human CatSper channel (Homo sapiens, UniProt Q7RTX7+Q86XQ3+Q8NEC5+Q96P56) (Q8NEC5 whole entry): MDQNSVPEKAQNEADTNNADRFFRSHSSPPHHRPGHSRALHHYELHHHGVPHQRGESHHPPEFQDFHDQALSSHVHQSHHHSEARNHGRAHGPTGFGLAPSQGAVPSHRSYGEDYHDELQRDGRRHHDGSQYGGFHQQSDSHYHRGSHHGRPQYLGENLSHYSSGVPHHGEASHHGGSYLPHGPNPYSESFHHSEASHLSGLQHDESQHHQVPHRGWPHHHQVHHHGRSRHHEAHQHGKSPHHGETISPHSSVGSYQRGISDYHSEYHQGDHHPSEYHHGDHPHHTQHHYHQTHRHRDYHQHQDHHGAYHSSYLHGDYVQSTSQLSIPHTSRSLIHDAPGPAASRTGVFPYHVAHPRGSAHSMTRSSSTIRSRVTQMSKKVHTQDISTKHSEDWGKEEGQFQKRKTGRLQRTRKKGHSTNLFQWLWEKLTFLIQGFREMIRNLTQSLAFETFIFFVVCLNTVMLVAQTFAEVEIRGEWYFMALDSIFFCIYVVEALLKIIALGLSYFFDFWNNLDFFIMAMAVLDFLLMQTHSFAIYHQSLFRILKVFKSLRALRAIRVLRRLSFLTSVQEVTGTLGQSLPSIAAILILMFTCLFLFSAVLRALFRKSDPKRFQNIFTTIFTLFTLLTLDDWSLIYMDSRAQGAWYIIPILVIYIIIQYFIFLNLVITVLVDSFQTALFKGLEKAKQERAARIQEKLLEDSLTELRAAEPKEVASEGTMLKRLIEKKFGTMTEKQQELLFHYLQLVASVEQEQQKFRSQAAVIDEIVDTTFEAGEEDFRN
Sequence of human CatSper channel (Homo sapiens, UniProt Q7RTX7+Q86XQ3+Q8NEC5+Q96P56) (Q86XQ3 whole entry): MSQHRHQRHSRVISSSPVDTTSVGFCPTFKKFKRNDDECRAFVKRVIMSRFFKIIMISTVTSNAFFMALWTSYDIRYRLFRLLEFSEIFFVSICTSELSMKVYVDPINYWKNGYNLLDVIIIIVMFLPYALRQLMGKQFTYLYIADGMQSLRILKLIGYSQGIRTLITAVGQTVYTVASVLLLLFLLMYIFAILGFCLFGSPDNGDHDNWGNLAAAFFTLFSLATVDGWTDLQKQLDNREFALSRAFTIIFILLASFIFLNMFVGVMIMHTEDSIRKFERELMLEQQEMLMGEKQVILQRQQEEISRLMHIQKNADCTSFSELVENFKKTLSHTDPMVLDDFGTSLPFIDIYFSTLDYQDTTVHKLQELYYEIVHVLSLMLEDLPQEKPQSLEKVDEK
Sequence of human CatSper channel (Homo sapiens, UniProt Q7RTX7+Q86XQ3+Q8NEC5+Q96P56) (Q96P56 whole entry): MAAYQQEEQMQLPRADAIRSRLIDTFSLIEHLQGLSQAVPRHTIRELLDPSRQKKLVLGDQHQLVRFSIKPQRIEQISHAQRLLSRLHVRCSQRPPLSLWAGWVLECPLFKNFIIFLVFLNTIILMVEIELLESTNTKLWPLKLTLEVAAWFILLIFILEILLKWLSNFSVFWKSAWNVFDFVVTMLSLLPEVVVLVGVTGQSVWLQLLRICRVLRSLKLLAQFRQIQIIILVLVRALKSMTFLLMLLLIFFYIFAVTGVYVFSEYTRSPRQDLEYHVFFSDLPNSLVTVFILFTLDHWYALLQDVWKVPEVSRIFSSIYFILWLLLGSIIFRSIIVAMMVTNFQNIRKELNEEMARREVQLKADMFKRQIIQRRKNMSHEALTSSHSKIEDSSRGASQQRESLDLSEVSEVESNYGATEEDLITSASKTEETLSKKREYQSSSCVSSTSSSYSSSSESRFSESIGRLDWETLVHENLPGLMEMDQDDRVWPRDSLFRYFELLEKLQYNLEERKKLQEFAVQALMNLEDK
Sequence of human CatSper channel (Homo sapiens, UniProt Q7RTX7+Q86XQ3+Q8NEC5+Q96P56) (Q7RTX7 whole entry): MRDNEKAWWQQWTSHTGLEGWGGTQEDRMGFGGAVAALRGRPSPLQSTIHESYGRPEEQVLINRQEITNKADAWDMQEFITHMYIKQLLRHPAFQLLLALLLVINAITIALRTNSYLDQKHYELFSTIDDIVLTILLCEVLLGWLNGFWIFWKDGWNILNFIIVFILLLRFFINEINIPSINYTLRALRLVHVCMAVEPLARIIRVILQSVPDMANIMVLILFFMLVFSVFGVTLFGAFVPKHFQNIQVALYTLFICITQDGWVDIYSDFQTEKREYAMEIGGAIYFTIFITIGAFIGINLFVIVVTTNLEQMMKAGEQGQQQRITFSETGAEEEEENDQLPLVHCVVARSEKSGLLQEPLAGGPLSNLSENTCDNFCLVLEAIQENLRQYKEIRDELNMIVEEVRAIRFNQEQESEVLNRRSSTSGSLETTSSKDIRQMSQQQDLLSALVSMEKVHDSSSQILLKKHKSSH

On to `CCCCC/C=C\C/C=C\C/C=C\C/C=C\CCCC(=O)OC(CO)CO` [2-AG, 2-arachidonoylglycerol], for which the “inhibition of mouse ICatSper” value on mouse CatSper (compared with human ICatSper) is recorded as “inhibits mouse ICatSper but with less efficacy than it inhibits human ICatSper”. In addition, the “percent inhibition against the outward current” value on mouse CatSper (mouse CatSper, n=5) is 73.9±4.4%. Also, the “effect on nascent/basal CatSper current” value with human CatSper channel [1] was “inhibited ICatSper”. For the same compound, at human CatSper channel [2], the “inhibition of ICatSper on intracellular application” value was “could not mimic this effect”; the “percent inhibition of CatSper outward current” value came out at 92.4±3.5%; the “rate of CatSper inactivation, decline in current amplitude τ” value turned out to be 1.6 ± 0.3 min. Also, at human CatSper channel [2] (read-out: median inhibitory concentration (IC50) of ICatSper, inward currents), the IC50 came out at 670 nM. Further, the IC50 on human CatSper channel [2] (read-out: median inhibitory concentration (IC50) of ICatSper, outward currents) was 350 nM.

For the compound lysophosphatidylethanolamine [lyso-PE], the “effect on nascent/basal CatSper current” value with human CatSper channel [1] (setting [4]) was “Neither lysophosphatidylinositol (lyso-PI) nor lysophosphatidylethanolamine (lyso-PE) affected nascent CatSper current”.

On to lysophosphatidylinositol [lyso-PI], for which, in the assay with human CatSper channel [1] (setting [4]), the “effect on nascent/basal CatSper current” value is given as “Neither lysophosphatidylinositol (lyso-PI) nor lysophosphatidylethanolamine (lyso-PE) affected nascent CatSper current”.

As for `CC(=O)[C@@]1(O)CC[C@H]2[C@@H]3CCC4=CC(=O)CC[C@]4(C)[C@H]3CC[C@@]21C` [17-OH—P], the “activation of CatSper current (ICatSper)” value in the assay on human CatSper channel [1] (human spermatozoa) is “reversibly activated”.

Regarding `CCCCC/C=C\C/C=C\C/C=C\C/C=C\CCCC(=O)OCC(O)CO` (centres unmarked) [1-AG, 1-arachidonoylglycerol], in the assay with human CatSper channel [1], the “effect on nascent/basal CatSper current” value was “inhibited ICatSper”. At human CatSper channel [2], the “percent inhibition of CatSper outward current” value was 85.0±0.5% and the “rate of CatSper inactivation, decline in current amplitude τ” value came out at 2.7 ± 0.2 min.

Take `CCCCC/C=C\C/C=C\C/C=C\C/C=C\CCCC(=O)NCCO` [AEA, anandamide]: the “effect on nascent/basal CatSper current” value in the assay on human CatSper channel [1] is listed as “does not change nascent CatSper behaviour; also recorded: had no effect”.

For `OCC(O)CO` [glycerol], the “effect on P4-dependent activation of CatSper (CatSper P4 sensitivity)” value in the assay on human CatSper channel [1] is reported as “did not ablate ICatSper or its regulation by P4”. Moreover, the “effect on nascent/basal CatSper current” value in the assay on human CatSper channel [1] (setting [4]) is “did not ablate ICatSper”.

Take estrogen: on ABHD2, the “ABHD2 in P4* pull-down in the presence of competing steroid” value is “ABHD2 presence in pull-down experiments”. Also, the “interference with P4 activation of CatSper” value with human CatSper channel [3] is “do not interfere with P4 activation of CatSper”.

`CCCCC/C=C\C/C=C\C/C=C\C/C=C\CCCC(=O)O` [AA, arachidonic acid]: the “regulation of CatSper by arachidonic acid” value with human CatSper channel [1] (ICatSper at +80 mV and −80 mV over time) is recorded as “Dual Regulator of CatSper”. In the assay on mouse spermatozoa, the “stimulation of mouse acrosome reaction (AR)” value is “stimulate mouse AR to similar levels”.

On to `O=C(Nc1ccccc1)N1CCC(Cc2cnc3ccccc3c2)CC1` [PF750], for which the “effect on P4-dependent activation of CatSper (CatSper P4 sensitivity)” value in the assay on human CatSper channel [1] is recorded as “did not change CatSper sensitivity to P4”.

Turning to `CCCCC[C@H](O)/C=C/[C@H]1[C@H](O)CC(=O)[C@@H]1CCCCCCC(=O)O` [PGE1, prostaglandin E1], the “activation of CatSper current (ICatSper)” value with human CatSper channel [1] (human spermatozoa) was “stimulated CatSper activation”.
